SMILES strings stand for the structures.

Results on two compounds are retold here after paper doi:10.1101/161430v2 (biorxiv, 2019).

Data set [1] concerns the target T1, human BChE (butyrylcholinesterase, BuChE) (Homo sapiens, UniProt P06276). The data set can be described thus: Ellman assay, […] nm. Format: biochemical. For orientation: DTNB colorimetry detects thiols as they appear.
In data set [2] the target is T1, human BChE (butyrylcholinesterase, BuChE). Kind of data set: biochemical.
Data set [3] has as its target T2, human AChE (acetylcholinesterase) (Homo sapiens, UniProt P22303). Kind of data set: biochemical.
A further data set relates to HeLa. Kind of data set: in vitro. To be noted: read-out: EC50 viability, 3.10; human, 48 h.
The next data set concerns H23. The data set can be described thus: in vitro. The conditions noted are these: read-out: EC50 viability, 3.10; human, 48 h.
The test system of another data set is HT29. The data set can be described thus: in vitro. The conditions noted are these: read-out: EC50 viability, 3.10; human, 48 h.
Data set [4] is described as follows: in vitro. The conditions noted are these: human, EC50 viability, 3.10.
The next data set relates to Colo205. The data set can be described thus: in vitro. To be noted: read-out: EC50 viability, 3.10; human, 48 h.
A further data set concerns MDA-MB-231. Kind of data set: in vitro. The conditions noted are these: read-out: EC50 viability, 3.10; human, 48 h.
A further data set deals with HTC116. The data set can be described thus: in vitro. The conditions noted are these: read-out: EC50 viability, 3.10; human, 48 h.
Another data set deals with PC3. The data set can be described thus: in vitro. The conditions noted are these: read-out: EC50 cmpd 3.10; human, 48 h.
The nature of data set [5]: in vitro. The conditions noted are these: human.
For data set [6], the target named is T3, human carboxylesterase 2 (CES2, hCES2) (Homo sapiens, UniProt O00748).
T3 sequence (O00748 27-559): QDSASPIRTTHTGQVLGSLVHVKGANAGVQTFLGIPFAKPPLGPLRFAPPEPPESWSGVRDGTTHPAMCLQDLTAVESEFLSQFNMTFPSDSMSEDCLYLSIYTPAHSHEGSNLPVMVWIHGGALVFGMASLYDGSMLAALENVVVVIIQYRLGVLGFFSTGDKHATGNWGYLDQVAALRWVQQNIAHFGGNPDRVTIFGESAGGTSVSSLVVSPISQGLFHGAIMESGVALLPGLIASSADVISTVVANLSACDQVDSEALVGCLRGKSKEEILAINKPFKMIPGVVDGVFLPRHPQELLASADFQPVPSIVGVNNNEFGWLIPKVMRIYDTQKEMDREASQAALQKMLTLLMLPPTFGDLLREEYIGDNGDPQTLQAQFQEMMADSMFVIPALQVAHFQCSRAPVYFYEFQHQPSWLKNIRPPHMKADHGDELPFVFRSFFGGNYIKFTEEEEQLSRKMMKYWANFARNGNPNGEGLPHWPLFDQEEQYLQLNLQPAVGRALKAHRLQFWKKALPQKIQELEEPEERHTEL
Kind of data set: competition with 4-nitrophenyl acetate, […] nm. It counts as biochemical.

Data set [7] deals with T2, human AChE (acetylcholinesterase). The data set can be described thus: Ellman assay, […] nm. Format: biochemical.
Data set [8] has as its target T4, human carboxylesterase 1 (CES1, hCES1) (Homo sapiens, UniProt P23141).
T4 sequence (P23141 18-567): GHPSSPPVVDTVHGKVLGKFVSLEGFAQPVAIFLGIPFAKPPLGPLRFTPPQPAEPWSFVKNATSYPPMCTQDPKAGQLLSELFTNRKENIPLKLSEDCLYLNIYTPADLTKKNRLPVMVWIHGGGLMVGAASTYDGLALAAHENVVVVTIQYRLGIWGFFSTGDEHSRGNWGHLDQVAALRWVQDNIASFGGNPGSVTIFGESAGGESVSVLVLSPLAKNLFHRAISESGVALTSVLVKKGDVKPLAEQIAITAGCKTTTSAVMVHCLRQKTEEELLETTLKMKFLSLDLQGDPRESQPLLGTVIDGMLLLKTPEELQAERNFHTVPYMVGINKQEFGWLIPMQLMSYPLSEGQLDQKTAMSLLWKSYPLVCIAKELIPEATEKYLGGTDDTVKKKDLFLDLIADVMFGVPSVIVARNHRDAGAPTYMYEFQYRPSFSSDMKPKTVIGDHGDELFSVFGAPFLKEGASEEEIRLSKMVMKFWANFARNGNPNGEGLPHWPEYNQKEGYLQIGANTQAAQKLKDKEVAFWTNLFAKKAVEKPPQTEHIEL
The data set can be described thus: biochemical.

The target of data set [9] is T4, human carboxylesterase 1 (CES1, hCES1). Kind of data set: competition with 4-nitrophenyl acetate, […] nm. It counts as biochemical.
For data set [10], the target named is T3, human carboxylesterase 2 (CES2, hCES2). The data set can be described thus: biochemical.

T2 sequence (P22303 32-614): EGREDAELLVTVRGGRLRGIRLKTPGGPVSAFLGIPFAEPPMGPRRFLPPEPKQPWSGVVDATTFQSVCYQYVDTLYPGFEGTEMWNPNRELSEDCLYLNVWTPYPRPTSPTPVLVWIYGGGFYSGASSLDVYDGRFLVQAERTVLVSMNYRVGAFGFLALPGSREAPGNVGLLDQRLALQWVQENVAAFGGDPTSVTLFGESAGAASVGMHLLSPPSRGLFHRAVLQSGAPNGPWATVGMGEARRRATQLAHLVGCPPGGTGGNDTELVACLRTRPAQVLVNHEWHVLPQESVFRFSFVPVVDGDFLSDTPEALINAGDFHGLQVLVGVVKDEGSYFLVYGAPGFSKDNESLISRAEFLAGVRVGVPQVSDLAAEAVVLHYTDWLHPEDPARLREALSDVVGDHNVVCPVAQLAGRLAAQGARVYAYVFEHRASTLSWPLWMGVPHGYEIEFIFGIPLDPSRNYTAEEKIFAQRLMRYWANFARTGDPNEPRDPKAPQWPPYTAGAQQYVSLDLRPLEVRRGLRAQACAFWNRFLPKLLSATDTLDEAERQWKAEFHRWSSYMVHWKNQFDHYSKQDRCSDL
T1 sequence (P06276 29-602): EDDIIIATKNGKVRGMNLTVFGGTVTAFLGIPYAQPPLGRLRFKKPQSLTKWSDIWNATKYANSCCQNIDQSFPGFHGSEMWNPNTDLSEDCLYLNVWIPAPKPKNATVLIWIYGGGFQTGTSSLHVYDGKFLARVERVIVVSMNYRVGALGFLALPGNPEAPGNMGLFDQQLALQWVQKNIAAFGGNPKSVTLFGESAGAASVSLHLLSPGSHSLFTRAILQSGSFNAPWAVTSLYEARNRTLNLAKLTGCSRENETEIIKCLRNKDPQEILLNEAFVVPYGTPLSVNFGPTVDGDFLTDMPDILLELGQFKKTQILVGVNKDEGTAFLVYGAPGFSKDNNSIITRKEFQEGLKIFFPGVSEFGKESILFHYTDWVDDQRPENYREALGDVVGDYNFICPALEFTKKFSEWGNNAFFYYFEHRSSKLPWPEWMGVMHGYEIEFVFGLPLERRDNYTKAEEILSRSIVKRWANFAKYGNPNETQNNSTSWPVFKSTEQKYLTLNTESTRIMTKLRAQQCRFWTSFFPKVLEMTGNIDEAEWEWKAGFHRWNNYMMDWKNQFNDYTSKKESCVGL

The Ki is the equilibrium dissociation constant of an inhibitor or competing ligand from its target. One may read the IC50 as the concentration needed to halve the response being measured. For `OB(O)c1cc(Br)cc(Oc2ccccc2)c1` [3.10, compound 3.10], the Ki is 94 nM in data set [1], 2.1 nM in data set [6], 9300 nM in [7] and 1.1 nM in data set [9]. For the same compound, the IC50 worked out at 490 nM in data set [2], 23000 nM in [3], 2 nM in data set [8] and 3.8 nM in data set [10]. Besides, the CC50 in the data set on HeLa, with H23, with HT29, in the data set with Colo205, in the data set with MDA-MB-231 and with HTC116 was more than 100000 nM each time. Besides, the CC50 with PC3 is more than 100000 nM. Moreover, the CC50 at 48 h in “in vitro [4]” and in the data set “in vitro [5]” was more than 100000 nM each time.
With `OB(O)c1cc(Br)cc(N2CCCC2)c1` [compound 3], the Ki in data set [1] stood at 260 nM; in data set [6] it was 21 nM; in data set [7], 25000 nM; in data set [9], 4.1 nM. Moreover, the IC50 in [3] came to 61000 nM; in data set [8], 7.4 nM; in data set [10], 37 nM. The CC50 at 48 h in the data set “in vitro [5]” (263t cells) is more than 100000 nM.
